pIC50: −log10 of the molar value.
Biological target: T1, Protein deacetylase HDAC6 (Homo sapiens, UniProt Q9UBN7)
T1 sequence (Q9UBN7 whole entry): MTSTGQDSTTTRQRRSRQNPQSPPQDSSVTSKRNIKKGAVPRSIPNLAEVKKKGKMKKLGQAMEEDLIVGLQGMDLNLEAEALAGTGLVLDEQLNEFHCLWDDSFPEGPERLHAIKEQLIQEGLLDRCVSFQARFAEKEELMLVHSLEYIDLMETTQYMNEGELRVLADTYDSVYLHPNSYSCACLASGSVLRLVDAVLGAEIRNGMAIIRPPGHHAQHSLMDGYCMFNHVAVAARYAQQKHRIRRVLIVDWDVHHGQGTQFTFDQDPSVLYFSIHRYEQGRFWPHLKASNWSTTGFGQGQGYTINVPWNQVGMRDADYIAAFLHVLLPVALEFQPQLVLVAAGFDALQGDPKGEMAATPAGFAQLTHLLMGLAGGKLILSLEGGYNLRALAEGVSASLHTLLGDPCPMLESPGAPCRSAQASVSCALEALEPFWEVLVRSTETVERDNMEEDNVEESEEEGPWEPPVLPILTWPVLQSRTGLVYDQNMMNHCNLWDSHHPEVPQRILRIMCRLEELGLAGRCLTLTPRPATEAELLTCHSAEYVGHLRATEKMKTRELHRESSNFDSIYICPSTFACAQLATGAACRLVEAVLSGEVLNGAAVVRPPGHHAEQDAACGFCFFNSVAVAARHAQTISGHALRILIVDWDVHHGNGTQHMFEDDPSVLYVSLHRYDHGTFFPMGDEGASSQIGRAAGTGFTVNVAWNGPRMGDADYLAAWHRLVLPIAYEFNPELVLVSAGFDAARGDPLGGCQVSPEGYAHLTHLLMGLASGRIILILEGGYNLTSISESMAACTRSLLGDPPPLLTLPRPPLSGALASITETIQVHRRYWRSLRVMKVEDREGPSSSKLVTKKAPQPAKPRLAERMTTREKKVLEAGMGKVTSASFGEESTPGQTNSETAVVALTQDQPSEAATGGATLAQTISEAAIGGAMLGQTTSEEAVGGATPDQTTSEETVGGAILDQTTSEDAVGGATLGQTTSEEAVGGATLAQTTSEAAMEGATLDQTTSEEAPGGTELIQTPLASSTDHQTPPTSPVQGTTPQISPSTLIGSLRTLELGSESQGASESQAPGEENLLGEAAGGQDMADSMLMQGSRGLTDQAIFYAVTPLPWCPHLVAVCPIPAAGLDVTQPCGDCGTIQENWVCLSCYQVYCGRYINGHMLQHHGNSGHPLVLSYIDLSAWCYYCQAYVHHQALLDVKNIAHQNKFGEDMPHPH
Test: In Vitro Enzymatic Assay: The assay principle is well known and all necessary reagents like enzymes, substrates, developer and reference compounds are commercially available. Stock solutions (10 mM in DMSO) of compounds were serially diluted 1:3 in 11 concentrations with a top concentration of 200 μM for HDAC1,2,3 and 2 μM for HDAC6 and HDAC8. The enzymatic reactions were conducted in a mixture containing assay buffer, bovine serum albumin, HDAC substrate, and a test compound. After enzymatic reaction, developer was added and after an additional incubation time, fluorescence intensity was measured at an excitation wavelength of 360 nm and an emission wavelength of 460 nm. All experiments were performed in duplicate.

## Cn1cc(CNCC2CCN(c3nc4cc(C(=O)NO)ccc4o3)CC2)c2ccccc21
  pIC50: 7.39

Reference: ChEMBL document CHEMBL5727703, “Bicyclic hydroxamic acids useful as inhibitors of mammalian histone deacetylase activity” (2020)
